We go through 71 compounds from patent US8754071B2 (priority 2011, dated 2014).

Each structure is given as a SMILES string.

This test deals with T1, c-kit (Homo sapiens, UniProt P10721).
T1 construct: human Mo7e cells which endogenously express c-kit; endogenous in cells; host or cells: human Mo7e cells (promegakaryocytic leukemia line), stimulated with human recombinant SCF
T1 sequence (P10721 26-976): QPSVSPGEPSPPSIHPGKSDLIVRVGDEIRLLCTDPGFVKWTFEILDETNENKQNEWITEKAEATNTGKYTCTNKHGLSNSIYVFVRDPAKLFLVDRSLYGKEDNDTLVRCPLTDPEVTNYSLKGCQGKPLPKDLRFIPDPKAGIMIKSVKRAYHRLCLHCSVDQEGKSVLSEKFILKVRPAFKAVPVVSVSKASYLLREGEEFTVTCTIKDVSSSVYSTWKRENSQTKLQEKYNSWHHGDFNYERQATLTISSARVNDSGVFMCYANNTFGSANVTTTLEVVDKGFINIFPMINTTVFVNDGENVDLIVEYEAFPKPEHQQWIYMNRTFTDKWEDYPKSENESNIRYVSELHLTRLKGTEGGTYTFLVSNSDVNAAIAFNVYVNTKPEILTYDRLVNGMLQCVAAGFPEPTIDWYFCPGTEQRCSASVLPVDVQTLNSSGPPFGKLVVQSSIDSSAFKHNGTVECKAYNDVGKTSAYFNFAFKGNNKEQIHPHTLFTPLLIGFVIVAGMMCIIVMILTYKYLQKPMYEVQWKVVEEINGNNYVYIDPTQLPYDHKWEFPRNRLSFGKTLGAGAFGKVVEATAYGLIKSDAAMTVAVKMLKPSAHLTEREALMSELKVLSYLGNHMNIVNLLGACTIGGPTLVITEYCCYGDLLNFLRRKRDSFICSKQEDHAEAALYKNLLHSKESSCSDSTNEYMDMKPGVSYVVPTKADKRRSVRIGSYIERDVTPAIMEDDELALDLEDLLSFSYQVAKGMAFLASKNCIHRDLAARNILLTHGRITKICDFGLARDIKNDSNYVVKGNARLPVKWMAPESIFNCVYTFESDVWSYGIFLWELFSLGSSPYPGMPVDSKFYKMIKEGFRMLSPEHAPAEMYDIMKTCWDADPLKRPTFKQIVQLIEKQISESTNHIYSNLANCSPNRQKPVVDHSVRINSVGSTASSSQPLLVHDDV
In words: Mo7e cell proliferation assay (SCF dependent proliferation). Conditions: Table 2; human Mo7e cells stimulated with SCF, 48 hours, CellTiter Glo; 1% FBS; read-out: c-kit (Mo7e). Format: cell-based. The essentials:
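Human Mo7e cells with endogenous c-kit, proliferation driven by SCF, 384-well format. After 48 h at 37 °C viability read by CellTiter-Glo luminescence. IC50 taken as concentration giving response halfway between baseline and maximum.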
On the technique in general: Cellular ATP, detected with luciferase, serves as a proxy for viable cell number.
For `CC(=O)N1CCOC[C@@H]1c1nc(-c2ccc(C)c(NC(=O)c3cnc4ccccn34)c2)no1` [F168], the IC50 amounted to 0.358 µM. For `COC(=O)N1CCC(c2nc(-c3ccc(C)c(NC(=O)c4cnc5ccccn45)c3)no2)C1` (centres unmarked) [F169], the IC50 was 0.132 µM. Turning to `Cc1ccc(-c2noc(C3CCN(S(C)(=O)=O)C3)n2)cc1NC(=O)c1cnc2ccccn12` (centres unmarked) [F170], the IC50 was determined as 0.137 µM.

In the case of `CC(=O)N1CCC(c2nc(-c3ccc(C)c(NC(=O)c4cnc5ccccn45)c3)no2)C1` (centres unmarked) [F171], the IC50 turned out to be 0.24 µM. On to `COC(=O)N1CC(F)(F)C[C@H]1c1nc(-c2ccc(C)c(NC(=O)c3cnc4ccccn34)c2)no1` [F172], for which the IC50 stood at 0.122 µM. Consider `CC(=O)N1CC(F)(F)C[C@H]1c1nc(-c2ccc(C)c(NC(=O)c3cnc4ccccn34)c2)no1` [F173], for which the IC50 came to 0.212 µM. As for `Cc1ccc(-c2noc(C3CN(C(=O)N(C)C)C3)n2)cc1NC(=O)c1cnc2ccccn12` [F174], the IC50 was 0.831 µM. In the case of `Cc1ccc(-c2noc(C3CN(C(=O)OC(C)(C)C)CCO3)n2)cc1NC(=O)c1cnc2ccccn12` (centres unmarked) [F175], the IC50 is 0.728 µM. Regarding `Cc1ccc(-c2noc([C@@H]3CCCN3C(=O)OC(C)(C)C)n2)cc1NC(=O)c1cnc2ccccn12` [F176], the IC50 was 0.452 µM.

Consider `COC(=O)N1CC(Cc2nc(-c3ccc(C)c(NC(=O)c4cnc5ccccn45)c3)no2)C1` [F177], for which the IC50 was found to be 0.398 µM. The value for `Cc1ccc(-c2noc(CC3CN(S(C)(=O)=O)C3)n2)cc1NC(=O)c1cnc2ccccn12` [F178] was 0.476 µM. The value for `Cc1ccc(-c2noc(CCN3CC(F)(F)C3)n2)cc1NC(=O)c1cnc2ccccn12` [F179] was 0.119 µM; that for `Cc1ccc(-c2noc(CCN3CCOCC3)n2)cc1NC(=O)c1cnc2ccccn12` [F180] was 0.169 µM. As to `Cc1ccc(-c2noc(CN3CC(CO)C3)n2)cc1NC(=O)c1cnc2ccccn12` [F181], the IC50 was 0.337 µM. In the case of `COCC1CN(Cc2nc(-c3ccc(C)c(NC(=O)c4cnc5ccccn45)c3)no2)C1` [F182], the IC50 is 0.259 µM. Consider `Cc1ccc(-c2noc(C(NC(=O)OC(C)(C)C)C3COC3)n2)cc1NC(=O)c1cnc2ccccn12` (centres unmarked) [F183], for which the IC50 was determined as 0.454 µM. The same measure for `Cc1ccc(-c2noc(C[C@@H]3CCN(C(=O)OC(C)(C)C)C3)n2)cc1NC(=O)c1cnc2ccccn12` [F184]: 0.496 µM; for `Cc1ccc(-c2noc(C[C@H]3CCN(C(=O)OC(C)(C)C)C3)n2)cc1NC(=O)c1cnc2ccccn12` [F185]: 0.452 µM; for `Cc1ccc(-c2noc([C@@H]3CCCN(C(=O)OC(C)(C)C)C3)n2)cc1NC(=O)c1cnc2ccccn12` [F186]: 0.291 µM. Regarding `Cc1ccc(-c2noc([C@H]3CCCN(C(=O)OC(C)(C)C)C3)n2)cc1NC(=O)c1cnc2ccccn12` [F187], the IC50 is 0.32 µM. The same measure for `Cc1ccc(-c2noc(C3CNCCO3)n2)cc1NC(=O)c1cnc2ccccn12` (centres unmarked) [F188]: 0.399 µM; for `Cc1ccc(-c2noc([C@H]3CNCCO3)n2)cc1NC(=O)c1cnc2ccccn12` [F189]: 0.824 µM. On to `Cc1ccc(-c2noc([C@@H]3CCCN3)n2)cc1NC(=O)c1cnc2ccccn12` [F190], for which the IC50 is 0.476 µM. Take `Cc1ccc(-c2noc([C@@H]3CCC(=O)N3)n2)cc1NC(=O)c1cnc2ccccn12` [F191]: the IC50 came to 0.465 µM.

As for `Cc1ccc(-c2noc(C3CCC(=O)N3)n2)cc1NC(=O)c1cnc2ccccn12` (centres unmarked) [F192], the IC50 was 0.672 µM. In the case of `CC(=O)N1CCC(c2nc(-c3ccc(C)c(NC(=O)c4cnc5ccccn45)c3)no2)CC1` [F193], the IC50 was 0.354 µM. The same measure for `COC(=O)N1CCOC(c2nc(-c3ccc(C)c(NC(=O)c4cnc5ccccn45)c3)no2)C1` (centres unmarked) [F194]: 0.105 µM; for `CC(=O)N1CCOC(c2nc(-c3ccc(C)c(NC(=O)c4cnc5ccccn45)c3)no2)C1` (centres unmarked) [F195]: 0.566 µM; for `COC(=O)N1CCC[C@H]1c1nc(-c2ccc(C)c(NC(=O)c3cnc4ccccn34)c2)no1` [F196]: 0.475 µM. As to `CC(=O)N1CCC[C@H]1c1nc(-c2ccc(C)c(NC(=O)c3cnc4ccccn34)c2)no1` [F197], the IC50 is 0.46 µM. Consider `COC(=O)N1CCO[C@@H](c2nc(-c3ccc(C)c(NC(=O)c4cnc5ccccn45)c3)no2)C1` [F198], for which the IC50 turned out to be 0.142 µM. For `CC(=O)N1CCO[C@@H](c2nc(-c3ccc(C)c(NC(=O)c4cnc5ccccn45)c3)no2)C1` [F199], the IC50 came to 0.509 µM.

In the case of `Cc1ccc(-c2noc([C@H]3CCCN3)n2)cc1NC(=O)c1cnc2ccccn12` [F200], the IC50 amounted to 0.395 µM.

Consider `COC(=O)N1CC(c2nc(-c3ccc(F)c(NC(=O)c4cnc5ccccn45)c3)no2)C1` [F201], for which the IC50 was 0.443 µM. Regarding `Cc1ccc(-c2noc([C@@H]3CCN3C(=O)OC3(C)CC3)n2)cc1NC(=O)c1cnc2ccccn12` [F202], the IC50 is 0.208 µM. The same measure for `Cc1ccc(-c2noc([C@@H]3CCCNC3)n2)cc1NC(=O)c1cnc2ccccn12` [F203]: 0.826 µM; for `COC(=O)N1CC[C@@H](Cc2nc(-c3ccc(C)c(NC(=O)c4cnc5ccccn45)c3)no2)C1` [F204]: 0.2 µM; for `COC(=O)N1CC[C@H](Cc2nc(-c3ccc(C)c(NC(=O)c4cnc5ccccn45)c3)no2)C1` [F205]: 0.284 µM.

As to `Cc1ccc(-c2noc(C[C@H]3CCN(S(C)(=O)=O)C3)n2)cc1NC(=O)c1cnc2ccccn12` [F206], the IC50 came to 0.169 µM.

Take `COC(=O)N1CCC[C@@H](c2nc(-c3ccc(C)c(NC(=O)c4cnc5ccccn45)c3)no2)C1` [F207]: the IC50 worked out at 0.141 µM. The same measure for `COC(=O)N1CCC[C@H](c2nc(-c3ccc(C)c(NC(=O)c4cnc5ccccn45)c3)no2)C1` [F208]: 0.134 µM; for `Cc1ccc(-c2noc([C@H]3CCCN(S(C)(=O)=O)C3)n2)cc1NC(=O)c1cnc2ccccn12` [F209]: 0.148 µM. Consider `Cc1ccc(-c2noc(CC3CCN(C(=O)OC(C)(C)C)CC3)n2)cc1NC(=O)c1cnc2ccccn12` [F210], for which the IC50 was determined as 0.71 µM. The value for `Cc1ccc(-c2noc(C[C@@H]3CCCN3C(=O)OC(C)(C)C)n2)cc1NC(=O)c1cnc2ccccn12` [F211] was 0.106 µM; that for `COC(=O)N1CCC[C@@H]1c1nc(-c2ccc(C)c(NC(=O)c3cnc4ccccn34)c2)no1` [F212] was 0.17 µM. As to `Cc1ccc(-c2noc([C@H]3CCCN3S(C)(=O)=O)n2)cc1NC(=O)c1cnc2ccccn12` [F213], the IC50 amounted to 0.137 µM.

In the case of `COC(=O)N1CCC(Cc2nc(-c3ccc(C)c(NC(=O)c4cnc5ccccn45)c3)no2)CC1` [F214], the IC50 was 0.142 µM. The value for `Cc1ccc(-c2noc(CC3CCN(S(C)(=O)=O)CC3)n2)cc1NC(=O)c1cnc2ccccn12` [F215] was 0.175 µM; that for `Cc1ccc(-c2noc(C[C@@H]3CCCN3)n2)cc1NC(=O)c1cnc2ccccn12` [F216] was 0.519 µM. As for `Cc1ccc(-c2noc(C3CN(S(=O)(=O)c4cnn(C)c4)C3)n2)cc1NC(=O)c1cnc2ccccn12` [F217], the IC50 was 0.173 µM. The same measure for `Cc1ccc(-c2noc(C3CN(S(=O)(=O)c4cn[nH]c4)C3)n2)cc1NC(=O)c1cnc2ccccn12` [F218]: 0.155 µM; for `CCCCS(=O)(=O)N1CC(c2nc(-c3ccc(F)c(NC(=O)c4cnc5ccccn45)c3)no2)C1` [F219]: 0.158 µM; for `O=C(Nc1cc(-c2noc(C3CN(S(=O)(=O)c4cccnc4)C3)n2)ccc1F)c1cnc2ccccn12` [F220]: 0.69 µM. As for `Cn1ccc(S(=O)(=O)N2CC(c3nc(-c4ccc(F)c(NC(=O)c5cnc6ccccn56)c4)no3)C2)n1` [F221], the IC50 stood at 0.851 µM. On to `COCCS(=O)(=O)N1CC(c2nc(-c3ccc(F)c(NC(=O)c4cnc5ccccn45)c3)no2)C1` [F222], for which the IC50 was 0.376 µM.

Regarding `O=C(Nc1cc(-c2noc(C3CN(S(=O)(=O)C(F)F)C3)n2)ccc1F)c1cnc2ccccn12` [F223], the IC50 turned out to be 0.151 µM.

`Cn1cc(S(=O)(=O)N2CC(c3nc(-c4ccc(F)c(NC(=O)c5cnc6ccccn56)c4)no3)C2)cn1` [F224]: the IC50 came to 0.854 µM. As to `COCCCN1CC(c2nc(-c3ccc(C)c(NC(=O)c4cnc5ccccn45)c3)no2)C1` [F225], the IC50 is 0.239 µM. The value for `Cc1ccc(-c2noc([C@@H](C)N3CC(F)(F)C3)n2)cc1NC(=O)c1cnc2ccccn12` [F226] was 0.112 µM; that for `Cc1ccc(-c2noc([C@@H](C)N3CCC(F)(F)C3)n2)cc1NC(=O)c1cnc2ccccn12` [F227] was 0.119 µM. Regarding `O=C(Nc1cc(-c2noc(CN3CC(F)(F)C3)n2)ccc1F)c1cnc2ccccn12` [F228], the IC50 came to 0.341 µM. The same measure for `O=C(Nc1cc(-c2noc(CN3CCOCC3)n2)ccc1F)c1cnc2ccccn12` [F229]: 0.245 µM. The value for `Cc1ccc(-c2noc(C3CN(C(=O)C(F)(F)F)C3)n2)cc1NC(=O)c1cnc2ccccn12` [F230] was 0.217 µM; that for `COC(=O)N1CC(c2nc(-c3cc(NC(=O)c4cnc5ccccn45)c(C)cc3F)no2)C1` [F231] was 0.439 µM. As to `Cc1cc(F)c(-c2noc(C3CN(S(C)(=O)=O)C3)n2)cc1NC(=O)c1cnc2ccccn12` [F232], the IC50 came out at 0.489 µM. Regarding `COC(=O)N1CC(c2nc(-c3ccc(C)c(NC(=O)c4cnc5ccc(C(F)(F)F)cn45)c3)no2)C1` [F233], the IC50 came to 0.218 µM. For `Cc1ccc(-c2noc(C3CN(C(=O)OC(C)C)C3)n2)cc1NC(=O)c1cnc2ccccn12` [F234], the IC50 is 0.245 µM. For `COC(=O)N1CC(c2nc(-c3ccc(C)c(NC(=O)c4cnc5cc(C#N)ccn45)c3)no2)C1` [F235], the IC50 worked out at 0.181 µM. With `COC(=O)N1CC(c2nc(-c3ccc(C)c(NC(=O)c4cnc5ccc(C#N)cn45)c3)no2)C1` [F236], the IC50 worked out at 0.103 µM.

For `COCC(c1nc(-c2ccc(C)c(NC(=O)c3cnc4ccccn34)c2)no1)N1CCC(F)(F)C1` (centres unmarked) [F237], the IC50 was determined as 0.109 µM. As to `COC(=O)N1CC(c2nc(-c3ccc(C)c(NC(=O)c4cnc5cc(C(F)(F)F)ccn45)c3)no2)C1` [F238], the IC50 turned out to be 0.13 µM.
